Patent US12077503B2, “Substituted cyclic amides and their use as herbicides” (FMC CORPORATION, priority 2015, dated 2024)

Legend:
Experiment in all cases: Test C preemergence
Format in all cases: in vivo
Conditions in all cases: scale 0 to 100, 0 no effect, 100 complete control
[1] = tested on: Galium (catchweed bedstraw, Galium aparine)
Method in brief: (§1)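 Greenhouse test: seeds in a loam and sand blend treated preemergence, or seedlings at the 1- to 4-leaf stage (2 to 18 cm) in a peat, vermiculite and limestone mix treated postemergence, with test chemicals in a surfactant-containing non-phytotoxic solvent. Scored by eye at 13 to 15 d relative to controls, 0 (no effect) to 100 (complete control).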

[2] = tested on: barnyardgrass (Echinochloa crus-galli)
Method in brief: as §1

[3] = tested on: blackgrass (Alopecurus myosuroides)
Method in brief: as §1

corn (Zea mays) = tested on: corn (Zea mays)
Method in brief: as §1

[4] = tested on: crabgrass, large (large crabgrass, Digitaria sanguinalis)
Method in brief: as §1

[5] = tested on: foxtail, giant (giant foxtail, Setaria faberii)
Method in brief: as §1

[6] = tested on: johnsongrass (Sorghum halepense)
Method in brief: as §1

[7] = tested on: lambsquarters (Chenopodium album)
Method in brief: as §1

[8] = tested on: morningglory (Ipomoea coccinea)
Method in brief: as §1

[9] = tested on: nutsedge, yellow (yellow nutsedge, Cyperus esculentus)
Method in brief: as §1

[10] = tested on: oilseed rape (Brassica napus)
Method in brief: as §1

[11] = tested on: ragweed (common ragweed, Ambrosia elatior)
Method in brief: as §1

[12] = tested on: ryegrass, Italian (Italian ryegrass, Lolium multiflorum)
Method in brief: as §1

soybean (Glycine max) = tested on: soybean (Glycine max)
Method in brief: as §1

[13] = tested on: velvetleaf (Abutilon theophrasti)
Method in brief: as §1

[14] = tested on: waterhemp (common waterhemp, Amaranthus rudis)
Method in brief: as §1

[15] = tested on: wheat (winter wheat, Triticum aestivum)
Method in brief: as §1

CN1CC(c2ccc(C(F)(F)F)cc2)C(C(=S)Nc2ccccc2F)C1=O (stereo not drawn) [Compound 450]
Plant response rating, Galium ([1]; 31 g ai/ha): 50 | Plant response rating, Galium ([1]; 62 g ai/ha): 90 | Plant response rating, Galium ([1]; 125 g ai/ha): 90 | Plant response rating, Galium ([1]; 250 g ai/ha): 95 | Plant response rating, Barnyardgrass ([2]; 31 g ai/ha): 90 | Plant response rating, Barnyardgrass ([2]; 62 g ai/ha): 90 | Plant response rating, Barnyardgrass ([2]; 125 g ai/ha): 90 | Plant response rating, Barnyardgrass ([2]; 250 g ai/ha): 95 | Plant response rating, Blackgrass ([3]; 31 g ai/ha): 0 | Plant response rating, Blackgrass ([3]; 62 g ai/ha): 0 | Plant response rating, Blackgrass ([3]; 125 g ai/ha): 45 | Plant response rating, Blackgrass ([3]; 250 g ai/ha): 60 | Plant response rating, Corn (corn (Zea mays); 31 g ai/ha): 5 | Plant response rating, Corn (corn (Zea mays); 62 g ai/ha): 5 | Plant response rating, Corn (corn (Zea mays); 125 g ai/ha): 20 | Plant response rating, Corn (corn (Zea mays); 250 g ai/ha): 65 | Plant response rating, Crabgrass, Large ([4]; 31 g ai/ha): 90 | Plant response rating, Crabgrass, Large ([4]; 62 g ai/ha): 90 | Plant response rating, Crabgrass, Large ([4]; 125 g ai/ha): 90 | Plant response rating, Crabgrass, Large ([4]; 250 g ai/ha): 95 | Plant response rating, Foxtail, Giant ([5]; 31 g ai/ha): 90 | Plant response rating, Foxtail, Giant ([5]; 62 g ai/ha): 90 | Plant response rating, Foxtail, Giant ([5]; 125 g ai/ha): 90 | Plant response rating, Foxtail, Giant ([5]; 250 g ai/ha): 95 | Plant response rating, Johnsongrass ([6]; 31 g ai/ha): 0 | Plant response rating, Johnsongrass ([6]; 62 g ai/ha): 0 | Plant response rating, Johnsongrass ([6]; 125 g ai/ha): 20 | Plant response rating, Johnsongrass ([6]; 250 g ai/ha): 50 | Plant response rating, Lambsquarters ([7]; 31 g ai/ha): 55 | Plant response rating, Lambsquarters ([7]; 62 g ai/ha): 50 | Plant response rating, Lambsquarters ([7]; 125 g ai/ha): 65 | Plant response rating, Lambsquarters ([7]; 250 g ai/ha): 65 | Plant response rating, Morningglory ([8]; 31 g ai/ha): 0 | Plant response rating, Morningglory ([8]; 62 g ai/ha): 0 | Plant response rating, Morningglory ([8]; 125 g ai/ha): 20 | Plant response rating, Morningglory ([8]; 250 g ai/ha): 10 | Plant response rating, Nutsedge, Yellow ([9]; 31 g ai/ha): 0 | Plant response rating, Nutsedge, Yellow ([9]; 62 g ai/ha): 0 | Plant response rating, Nutsedge, Yellow ([9]; 125 g ai/ha): 0 | Plant response rating, Nutsedge, Yellow ([9]; 250 g ai/ha): 0 | Plant response rating, Oilseed Rape ([10]; 31 g ai/ha): 30 | Plant response rating, Oilseed Rape ([10]; 62 g ai/ha): 30 | Plant response rating, Oilseed Rape ([10]; 125 g ai/ha): 20 | Plant response rating, Oilseed Rape ([10]; 250 g ai/ha): 60 | Plant response rating, Ragweed ([11]; 31 g ai/ha): 5 | Plant response rating, Ragweed ([11]; 62 g ai/ha): 10 | Plant response rating, Ragweed ([11]; 125 g ai/ha): 20 | Plant response rating, Ragweed ([11]; 250 g ai/ha): 60 | Plant response rating, Ryegrass, Italian ([12]; 62 g ai/ha): 0 | Plant response rating, Ryegrass, Italian ([12]; 125 g ai/ha): 0 | Plant response rating, Ryegrass, Italian ([12]; 250 g ai/ha): 30 | Plant response rating, Soybean (soybean (Glycine max); 62 g ai/ha): 5 | Plant response rating, Soybean (soybean (Glycine max); 125 g ai/ha): 0 | Plant response rating, Soybean (soybean (Glycine max); 250 g ai/ha): 0 | Plant response rating, Velvetleaf ([13]; 62 g ai/ha): 0 | Plant response rating, Velvetleaf ([13]; 125 g ai/ha): 10 | Plant response rating, Velvetleaf ([13]; 250 g ai/ha): 50 | Plant response rating, Waterhemp ([14]; 62 g ai/ha): 60 | Plant response rating, Waterhemp ([14]; 125 g ai/ha): 75 | Plant response rating, Waterhemp ([14]; 250 g ai/ha): 85 | Plant response rating, Wheat ([15]; 62 g ai/ha): 30 | Plant response rating, Wheat ([15]; 125 g ai/ha): 40 | Plant response rating, Wheat ([15]; 250 g ai/ha): 60
